Measurements from ChEMBL document CHEMBL1133253, “Improved antibacterial activities of coumarin antibiotics bearing 5',5'-dialkylnoviose: biological activity of RU79115” (Bioorg Med Chem Lett, 2000).
In brackets after ≈: the same amount, converted by molar mass.

What was measured:
Enterococcus faecium = test: Tested for in vitro antibacterial activity against Enterococcus faecium 02D31P2 vancomycin teicoplanin erythromycin resistance phenotype; type: functional
Staphylococcus aureus [1] = test: IC50 was determined for gyrase B of Staphylococcus aureus against novobiocin (0.5 mg/mL) as reference; IC50nov/IC50comp
[2] = system: Staphylococcus epidermidis; test: Tested for in vitro antibacterial activity against Staphylococcus epidermidis 012GO42 oxacillin resistance phenotype; type: functional
Staphylococcus aureus [3] = test: Tested for in vitro antibacterial activity against Staphylococcus aureus 011 HT3 phenotype; type: functional
Streptococcus pyogenes = test: Tested for in vitro antibacterial activity against Streptococcus pyogenes O2A1UC1 phenotype; type: functional
Staphylococcus aureus [4] = test: Tested for in vitro antibacterial activity against Staphylococcus aureus 011 HT1 novobiocin resistance phenotype; type: functional
Staphylococcus aureus [5] = test: Tested for in vitro antibacterial activity against Staphylococcus aureus 011 GO64 ofloxacin oxacillin erythromycin resistance phenotype; type: functional

Compound	MIC (Enterococcus faecium) [µg/mL]	Ratio (Staphylococcus aureus [1])	MIC [2] [µg/mL]	MIC (Staphylococcus aureus [3]) [µg/mL]	MIC (Streptococcus pyogenes) [µg/mL]	MIC (Staphylococcus aureus [4]) [µg/mL]	MIC (Staphylococcus aureus [5]) [µg/mL]
C#CCONC(=O)O[C@H]1[C@@H](O)[C@H](Oc2ccc3c(O)c(/C(C)=N/OC)c(=O)oc3c2C)O[C@@](C)(CC)[C@@H]1OC	0.15 (≈ 0.273 µM)	11.1	< 0.04	< 0.04	0.08 (≈ 0.146 µM)	0.3 (≈ 0.547 µM)	–
C#CCONC(=O)O[C@H]1[C@@H](O)[C@H](Oc2ccc3c(=O)c(/C(C)=N/OC)c(O)oc3c2C)OC2(CCCCC2)[C@@H]1OC	0.15 (≈ 0.261 µM)	2.6	< 0.04	< 0.04	0.6 (≈ 1.04 µM)	0.6 (≈ 1.04 µM)	0.15 (≈ 0.261 µM)
